Four compounds from patent publication US20100204112A1, “USE OF TYR-W-MIF-1 AND UROCORTIN 2 AS THERAPEUTIC AGENTS” (priority 2007, published 2010) can be followed below.

The test system of one assay is HIV-1IIIB. Briefly: HIV-1 antiviral assay in CEM-SS cells (MTS readout).
The test system of a further assay is spleen cells. The assay can be described thus: Th1/Th2 cytokine profiling assay (Ovalbumin-restimulated spleen cells, CBA Kit). The format is cell-based, Balb/c mice. The conditions noted are these: 10 micrograms per ml; Ovalbumin restimulation; 72 hours.
For assay [1], the system named is Primary Human endothelial cells (HUVEC). The assay can be described thus: Endothelial cell migration assay. The conditions noted are these: 10 micrograms per ml, 22 hours, combination peptide 1:peptide 2 0.95 mole:1.05 mole.
Experimental: Primary Human endothelial cells (HUVEC) were seeded in insert chambers with 3 micrometer pore size of multi-transwell plate for 6 hours at 37° C. in Endothelial Cell Basal Medium (EBM) supplemented with 0.1% bovine serum albumin. Thereafter, designated concentration of testing peptides -10 micrograms per ml—was added in duplicate wells. The endothelia were allowed to migrate for 22 hours at 37° C., then, migrated cells were fixed and stained with Hoechst 33342 dye. Images of 3 fields per insert were taken and the number of migrated cells per field were quantified using the ImageProPlus software. Data were analyzed for the average number of the migrated cells and standard deviation of six data points for each treatment condition. […] Statistic p values were computed using the Student's t-test.
The test system of the next assay is HUVEC. The assay can be described thus: Endothelial tube formation assay. The conditions noted are these: 10 micrograms per ml, 20 hours, combination peptide 1:peptide 2 0.95 mole:1.05 mole.
The subject of a further assay is RAW 264.7 cells. Briefly: Phagocytosis assay (Fluorescein-labeled Escherichia coli, flow cytometry). Conditions: 10 micrograms per ml, combination peptide 1:peptide 2 1.10 mole:0.90 mole. A general note: In flow cytometry, cells or beads pass a laser one at a time.
For assay [2], the system named is hepatitis B virus (HBV) ayw strain. The assay can be described thus: HBV experimental assay system (HepG2-2.2.15, TaqMan PCR of secreted HBV DNA). The format is cell-based. Conditions: 10 micrograms per ml; HepG2-2.2.15 cells; six days; HBV DNA by TaqMan PCR. An excerpt: HepG2-2.2.15 is a stable cell line containing the hepatitis B virus (HBV) ayw strain genome (ATCC Cat. No. CRL-11997). Antiviral compounds blocking any late step of viral replication such as transcription, translation, pregenome encapsidation, reverse transcription, particle assembly and release can be identified and characterized using this cell line. In this assay, an active compound will reduce the production of secreted HBV from cells, measured by utilizing real time quantitative PCR (TaqMan) assay to directly and accurately measure HBV DNA copies.
HepG2-2.2.15 cells were plated in 96-well microtiter plates. After 16-24 hours the confluent monolayer of HepG2-2.2.15 cells was washed and the medium was replaced with complete medium containing test peptides—10 micrograms per ml—in duplicate. […] Six days following the initial administration of the peptides, the cell culture supernatants was collected, treated with pronase and DNAse and then used in a real-time quantitative TaqMan PCR assay. The PCR-amplified HBV DNA was detected in real-time by monitoring increases in fluorescence signals that result from the exonucleolytic degradation of a quenched fluorescence probe molecule that hybridizes to the amplified HBV DNA. […] Antiviral activity was calculated from the reduction in HBV DNA levels (% virus control). […]
For orientation: In qPCR the cycle at which signal appears reflects the starting amount.

The next assay relates to HCMV strain AD169. Briefly: HCMV plaque formation assay in MRC-5 cells. Conditions: 10 micrograms per ml, 7-10 days.

Where no end group is shown, it is not given here.

Experimental for RAW 264.7 cells: RAW 264.7 (Mouse leukaemic monocyte macrophage cell line) cells were obtained from ATCC and grown in RPMI 1640 medium containing 10% FBS. Cells were incubated in 12×75 mm tubes at 37° C. with test peptides—10 micrograms per ml—for 30 min prior to adding Fluorescein-labeled Escherichia coli bacteria as the agent to be ingested. After the cells were incubated for additional 60 min at 37° C. and allowed to ingest the Fluorescein-labeled Escherichia coli bacteria, cells were fixed with 1% paraformaldehyde. The samples were then analyzed by flow cytometry to determine the amount of phagocytosis as a function of brightness (the greater the phagocytic activity, the more fluorescence in the macrophage population). Data are reported as % positive and the mean fluorescence intensity (MFI) of positively stained cells.
Text for spleen cells: The Balb/c mice (originated in 1923, it is a popular strain and is used in many different research disciplines. Also classified as an inbred from the production of 20 or more successive brother-sister matings, the Balb/c mouse is albino and small in size) were immunized on Days 1, 15, and 29 with Ovalbumin (Ovalbumin is the main protein found in egg white, commonly used to stimulate an immunological reaction in test animals) in PBS (5 micrograms/injection). On day 50, spleens of the mice were harvested (3 weeks after last boost with Ovalbumin). […] Thereafter, additional Ovalbumin was added to the cells at 10 micrograms/ml for in vitro restimulation of the cells. 72 hours later, cell supernatants were harvested and assayed using the Becton Dickinson Mouse Th1/Th2 Cytokine CBA Kit. This kit can be used to measure Interleukin-2 (IL-2), Interleukin-4 (IL-4), Interleukin-5 (IL-5), Interferon-γ (IFN-γ), and Tumor Necrosis Factor-α (TNF-α) protein levels in a single sample.

Take `Cc1cn([C@H]2C[C@H](N=[N+]=[N-])[C@@H](CO)O2)c(=O)[nH]c1=O` [AZT]: in the assay on HIV-1IIIB, the “antiviral activity of positive control compounds (HIV-1)” value is listed as “expected levels of antiviral activity”.
The same measure, in the same setting: the result for `CC(C)(C)NC(=O)[C@@H]1CN(Cc2cccnc2)CCN1C[C@@H](O)C[C@@H](Cc1ccccc1)C(=O)N[C@H]1c2ccccc2C[C@H]1O` [indinavir] reads “expected levels of antiviral activity”.
Regarding “His-Pro-Gly-Ser-Arg-Ile-Val-Leu-Ser-Leu-Asp-Val-Pro-Ile-Gly-Leu-Leu-Gln-Ile-Leu-Leu-Glu-Gln-Ala-Arg-Ala-Arg-Ala-Ala-Arg-Glu-Gln-Ala-Thr-Thr-Asn-Ala-Arg-Ile-Leu-Ala-Arg-Val-NH2 (HPGSRIVLSLDVPIGLLQILLEQARARAAREQATTNARILARV-NH2) [Peptide 2]”, in the assay on spleen cells, the “IFNγ spleen cells; TH1 response (% of control)” value was 105.6 % of control, the “IL-2 spleen cells (% of control)” value is given as 66.8 % of control, the “IL-4 spleen cells; TH2 response (% of control)” value is given as 68.9 % of control and the “IL-5 spleen cells; TH2 response (% of control)” value is 67.0 % of control. Also, in the assay on spleen cells, the “TNF-a spleen cells; TH1 response (% of control)” value is recorded as 125.6 % of control. Also, the “inhibition of the migration of human endothelial cells” value in assay [1] is 15%. Further, the “inhibition of the tube formation of endothelial cells” value with HUVEC turned out to be 35%. The “effect on the phagocytic activity of murine macrophages (increase)” value in the assay on RAW 264.7 cells was 31.4%. Further, in assay [2], the “inhibition of HBV replication as compared to the virus control infection” value was “no effect”. Besides, in the assay with HCMV strain AD169, the “inhibition of HCMV plaque formation as compared to the virus control” value is on record as “did not inhibit”.
Regarding “Tyr-Pro-Trp-Gly-NH2 (YPWG-NH2) [Peptide 1]”, in the assay on spleen cells, the “IFNγ spleen cells; TH1 response (% of control)” value is recorded as 62.0 % of control, the “IL-2 spleen cells (% of control)” value is recorded as 83.2 % of control, the “IL-4 spleen cells; TH2 response (% of control)” value is recorded as 77.4 % of control and the “IL-5 spleen cells; TH2 response (% of control)” value is on record as 57.1 % of control. The “TNF-a spleen cells; TH1 response (% of control)” value in the assay with spleen cells is listed as 82.3 % of control. Moreover, the “inhibition of the migration of human endothelial cells” value in assay [1] is reported as “did not inhibit”. Also, in the assay on HUVEC, the “inhibition of the tube formation of endothelial cells” value came to 40%. The “effect on the phagocytic activity of murine macrophages (increase)” value with RAW 264.7 cells is given as “no inhibitory or activating effects”. Further, the “inhibition of HBV replication as compared to the virus control infection” value in assay [2] is recorded as 14.7%. For the same compound, in the assay with HCMV strain AD169, the “inhibition of HCMV plaque formation as compared to the virus control” value is recorded as “did not inhibit”.
